Reference: patent US5591741A, “Fungicidal spiroheterocyclic derivatives” (American Cyanamid Company, priority 1993, dated 1997)

How the values were obtained:
[1] = tested on: Erysiphe graminis f.sp. hordei; assay: Activity against barley powdery mildew, direct therapeutic (EGT); format: in vivo; conditions: direct therapeutic foliar spray, 600 ppm, up to 7 days
Procedure, shortened: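 A curative spray at 600 ppm was applied to single-leaf Golden Promise barley inoculated with powdery mildew conidia the previous day. After up to 7 days at 18 °C and 40% humidity, disease control was rated from percent leaf area sporulating relative to untreated or diluent-sprayed controls.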

Phytophthora infestans = format: in vivo; conditions: tomato, direct protectant foliar spray
Pyricularia oryzae = format: in vivo; conditions: rice seedlings, direct therapeutic foliar spray, 600 ppm, 4-5 days
Leptosphaeria nodorum = assay: Activity against wheat leafspot (LN); format: in vivo; conditions: direct therapeutic foliar spray, 600 ppm, 6-8 days
Procedure, shortened: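 Therapeutic foliar spray: compound at 600 ppm applied to single-leaf wheat (cv Norman) 24 h after inoculation with 1.5×10^6 conidia/ml. Disease control scored after 6-8 days at 22° C and 70% humidity as lesions per leaf versus untreated or diluent-sprayed controls.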

Alternaria solani = assay: Activity against tomato early blight (AS); format: in vivo; conditions: Table VI; tomato seedlings, contact prophylactic foliar spray, 4 days
Procedure, shortened: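 Plants were challenged with A. solani conidia (10^4 spores/ml) 24 h after a protective foliar spray of compound in 50:50 acetone/water plus 0.04% Tween 20. Held humid at 21° C for 4 days, then percent leaf area with lesions was scored as a rating relative to controls.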

Rhizoctonia solani = assay: Activity against Rhizoctonia in-vitro (RSI); format: cell-based; conditions: 10 ppm, 10 days, 20° C., mycelial growth
Procedure, shortened: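 Compound at a final 10 ppm (acetone vehicle) in half-strength PDB, inoculated with 5×10^4 fragments/ml of shaken-culture R. solani mycelium. After incubation at 20° C for 10 days, growth scored as a rating versus untreated or diluent-treated controls.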

[2] = tested on: Erysiphe graminis f.sp. hordei; assay: Direct protectant activity against barley powdery mildew (EGP); format: in vivo; conditions: direct protectant foliar spray, 8 days
Procedure, shortened: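 Rating reflects percentage of leaf area with sporulation compared with untreated or diluent-sprayed controls. Protectant spray was applied to single-leaf barley (cv Golden Promise) 24 h before conidia inoculation. Plants were kept at 18 °C and 40% RH throughout, with 8 days of disease development.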

[3] = tested on: Pseudocercosporella herpotrichoides; assay: Activity against wheat eyespot in-vitro (PHI); format: cell-based; conditions: 10 ppm, 10 days, 20° C., mycelial growth
Procedure, shortened: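 Mycelial growth was scored after 10 days at 20 °C against untreated or diluent controls. The broth was half-strength potato dextrose, holding 10 ppm test compound (from acetone) and 5×10^4 fragments/ml of the eyespot fungus.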

Venturia inaequalis = assay: Activity against apple scab in-vitro (VII); format: cell-based; conditions: 10 ppm, 10 days, 20° C., mycelial growth
Procedure, shortened: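 V. inaequalis propagules (5×10^4/ml, malt agar-grown) were exposed in half-strength PDB to 10 ppm final test compound delivered in acetone. Growth was scored after incubation for 10 days at 20° C, as a rating relative to untreated or diluent-sprayed controls.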

Botrytis cinerea = assay: Direct protectant activity against broad bean grey mould (BCB); format: in vivo; conditions: direct protectant foliar spray, 600 ppm, 4 days
Procedure, shortened: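 Protectant foliar test: lesion coverage assessed 4 days after inoculation and rated relative to untreated or diluent-sprayed plants. Compound applied at 600 ppm to cv The Sutton leaves 24 h before 10^6 conidia/ml suspension; incubation at 22 °C in high humidity.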

Plasmopara viticola = assay: Antisporulant activity against vine downy mildew (PVA); format: in vivo; conditions: vine leaves, antisporulant foliar spray, 600 ppm, 750 l/ha
Procedure, shortened: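 Cabernet Sauvignon vines (~8 cm) inoculated on lower leaf surfaces with 5×10^4 zoosporangia/ml, held 24 h at 21° C high humidity then 24 h glasshouse. Infected leaves sprayed underside with 600 ppm compound in 1:1 water/acetone, 0.04% Tween 20, 750 l/ha; 96 h glasshouse, 24 h humidity. Sporulating leaf area rated versus control.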

SMILES: CCCCCCNCC1COC2(CCC(C(C)(C)C)CC2)C1 (centres unmarked) [Compound 184, 8-t-butyl-3-n-hexylaminomethyl-1-oxaspiro(4,5)decane]
- disease control rating EGT [1]: 2 (greater than 80% disease control)
- disease control rating PIP (Phytophthora infestans): 0 (less than 50% disease control)
- disease control rating PO (Pyricularia oryzae): 0 (less than 50% disease control)
- disease control rating LN (Leptosphaeria nodorum): 0 (less than 50% disease control)
- disease control rating AS (Alternaria solani): 0 (less than 50% disease control)
- disease control rating RSI (Rhizoctonia solani): 2 (greater than 80% disease control)
- disease control rating EGP [2]: 2 (greater than 80% disease control)
- disease control rating PHI [3]: 1 (about 50-80% disease control)
- disease control rating VII (Venturia inaequalis): 2 (greater than 80% disease control)
- disease control rating BCB (Botrytis cinerea): 2 (greater than 80% disease control)
- disease control rating PVA (Plasmopara viticola): 0 (less than 50% disease control)

SMILES: CC(C)(C)C1CCC2(CC1)CC(NCc1ccc(Br)cc1)CO2 (centres unmarked) [Compound 29]
- disease control rating EGT [1]: 2 (greater than 80% disease control)
- disease control rating PIP (Phytophthora infestans): 0 (less than 50% disease control)
- disease control rating PO (Pyricularia oryzae): 0 (less than 50% disease control)
- disease control rating LN (Leptosphaeria nodorum): 0 (less than 50% disease control)
- disease control rating AS (Alternaria solani): 0 (less than 50% disease control)
- disease control rating RSI (Rhizoctonia solani): 0 (less than 50% disease control)
- disease control rating EGP [2]: 2 (greater than 80% disease control)
- disease control rating PHI [3]: 0 (less than 50% disease control)
- disease control rating VII (Venturia inaequalis): 2 (greater than 80% disease control)
- disease control rating BCB (Botrytis cinerea): 0 (less than 50% disease control)
- disease control rating PVA (Plasmopara viticola): 0 (less than 50% disease control)

SMILES: CC1(CNC2COC3(CCC(C(C)(C)C)CC3)C2)CCCCC1 (centres unmarked) [Compound 120]
- disease control rating EGT [1]: 2 (greater than 80% disease control)
- disease control rating PIP (Phytophthora infestans): 0 (less than 50% disease control)
- disease control rating PO (Pyricularia oryzae): 0 (less than 50% disease control)
- disease control rating LN (Leptosphaeria nodorum): 0 (less than 50% disease control)
- disease control rating AS (Alternaria solani): 0 (less than 50% disease control)
- disease control rating RSI (Rhizoctonia solani): 1 (about 50-80% disease control)
- disease control rating EGP [2]: 2 (greater than 80% disease control)
- disease control rating PHI [3]: 0 (less than 50% disease control)
- disease control rating VII (Venturia inaequalis): 1 (about 50-80% disease control)
- disease control rating BCB (Botrytis cinerea): 1 (about 50-80% disease control)
- disease control rating PVA (Plasmopara viticola): 0 (less than 50% disease control)

SMILES: CCCCCN(C(C)C)C1COC2(CCC(C(C)(C)C)CC2)C1 (centres unmarked) [Compound 76]
- disease control rating EGT [1]: 2 (greater than 80% disease control)
- disease control rating PIP (Phytophthora infestans): 0 (less than 50% disease control)
- disease control rating PO (Pyricularia oryzae): 0 (less than 50% disease control)
- disease control rating LN (Leptosphaeria nodorum): 0 (less than 50% disease control)
- disease control rating AS (Alternaria solani): 0 (less than 50% disease control)
- disease control rating RSI (Rhizoctonia solani): 0 (less than 50% disease control)
- disease control rating EGP [2]: 2 (greater than 80% disease control)
- disease control rating PHI [3]: 0 (less than 50% disease control)
- disease control rating VII (Venturia inaequalis): 0 (less than 50% disease control)
- disease control rating BCB (Botrytis cinerea): 0 (less than 50% disease control)
- disease control rating PVA (Plasmopara viticola): 0 (less than 50% disease control)

SMILES: CC(C)(C)C1CCC2(CC1)CC(NC1CCCC1)CO2 (centres unmarked) [Compound 70]
- disease control rating EGT [1]: 2 (greater than 80% disease control)
- disease control rating PIP (Phytophthora infestans): 2 (greater than 80% disease control)
- disease control rating PO (Pyricularia oryzae): 0 (less than 50% disease control)
- disease control rating LN (Leptosphaeria nodorum): 0 (less than 50% disease control)
- disease control rating AS (Alternaria solani): 1 (about 50-80% disease control)
- disease control rating RSI (Rhizoctonia solani): 0 (less than 50% disease control)
- disease control rating EGP [2]: 2 (greater than 80% disease control)
- disease control rating PHI [3]: 0 (less than 50% disease control)
- disease control rating VII (Venturia inaequalis): 1 (about 50-80% disease control)
- disease control rating BCB (Botrytis cinerea): 0 (less than 50% disease control)
- disease control rating PVA (Plasmopara viticola): 0 (less than 50% disease control)

SMILES: CC(C)(C)C1CCC2(CC1)CC(CCN)CO2.Cl (centres unmarked) [Compound 190, 8-t-butyl-3-aminoethyl-1-oxaspiro(4,5)decane hydrochloride]
- disease control rating EGT [1]: 0 (less than 50% disease control)
- disease control rating PIP (Phytophthora infestans): 2 (greater than 80% disease control)
- disease control rating PO (Pyricularia oryzae): 0 (less than 50% disease control)
- disease control rating LN (Leptosphaeria nodorum): 0 (less than 50% disease control)
- disease control rating AS (Alternaria solani): 0 (less than 50% disease control)
- disease control rating RSI (Rhizoctonia solani): 0 (less than 50% disease control)
- disease control rating EGP [2]: 1 (about 50-80% disease control)
- disease control rating PHI [3]: 0 (less than 50% disease control)
- disease control rating VII (Venturia inaequalis): 0 (less than 50% disease control)
- disease control rating BCB (Botrytis cinerea): 0 (less than 50% disease control)
- disease control rating PVA (Plasmopara viticola): 1 (about 50-80% disease control)

SMILES: CC(C)(C)C1CCC2(CC1)CC(CCNC1CCCCC1)CO2 (centres unmarked) [Compound 189, 8-t-Butyl-3-cyclohexylaminoethyl-1-oxaspiro(4,5)decane]
- disease control rating EGT [1]: 2 (greater than 80% disease control)
- disease control rating PIP (Phytophthora infestans): 1 (about 50-80% disease control)
- disease control rating PO (Pyricularia oryzae): 0 (less than 50% disease control)
- disease control rating LN (Leptosphaeria nodorum): 0 (less than 50% disease control)
- disease control rating AS (Alternaria solani): 0 (less than 50% disease control)
- disease control rating RSI (Rhizoctonia solani): 0 (less than 50% disease control)
- disease control rating EGP [2]: 2 (greater than 80% disease control)
- disease control rating PHI [3]: 0 (less than 50% disease control)
- disease control rating VII (Venturia inaequalis): 1 (about 50-80% disease control)
- disease control rating BCB (Botrytis cinerea): 0 (less than 50% disease control)
- disease control rating PVA (Plasmopara viticola): 0 (less than 50% disease control)

SMILES: CC(C)(C)C1CCC2(CC1)CC(NCCC1CCCCC1)CO2 (centres unmarked) [Compound 100]
- disease control rating EGT [1]: 2 (greater than 80% disease control)
- disease control rating PIP (Phytophthora infestans): 2 (greater than 80% disease control)
- disease control rating PO (Pyricularia oryzae): 0 (less than 50% disease control)
- disease control rating LN (Leptosphaeria nodorum): 0 (less than 50% disease control)
- disease control rating AS (Alternaria solani): 0 (less than 50% disease control)
- disease control rating RSI (Rhizoctonia solani): 1 (about 50-80% disease control)
- disease control rating EGP [2]: 2 (greater than 80% disease control)
- disease control rating PHI [3]: 1 (about 50-80% disease control)
- disease control rating VII (Venturia inaequalis): 2 (greater than 80% disease control)
- disease control rating BCB (Botrytis cinerea): 2 (greater than 80% disease control)
- disease control rating PVA (Plasmopara viticola): 0 (less than 50% disease control)

SMILES: CC(C)(C)C1CCC2(CC1)CC(NC1C3CC4CC(C3)CC1C4)CO2 (centres unmarked) [Compound 86]
- disease control rating EGT [1]: 2 (greater than 80% disease control)
- disease control rating PIP (Phytophthora infestans): 2 (greater than 80% disease control)
- disease control rating PO (Pyricularia oryzae): 0 (less than 50% disease control)
- disease control rating LN (Leptosphaeria nodorum): 0 (less than 50% disease control)
- disease control rating AS (Alternaria solani): 2 (greater than 80% disease control)
- disease control rating RSI (Rhizoctonia solani): 0 (less than 50% disease control)
- disease control rating EGP [2]: 2 (greater than 80% disease control)
- disease control rating PHI [3]: 0 (less than 50% disease control)
- disease control rating VII (Venturia inaequalis): 1 (about 50-80% disease control)
- disease control rating BCB (Botrytis cinerea): 0 (less than 50% disease control)
- disease control rating PVA (Plasmopara viticola): 0 (less than 50% disease control)

SMILES: CC(C)(C)C1CCC2(CC1)CC(NC1CCC(O)CC1)CO2 (centres unmarked) [Compound 90]
- disease control rating EGT [1]: 2 (greater than 80% disease control)
- disease control rating PIP (Phytophthora infestans): 2 (greater than 80% disease control)
- disease control rating PO (Pyricularia oryzae): 0 (less than 50% disease control)
- disease control rating LN (Leptosphaeria nodorum): 0 (less than 50% disease control)
- disease control rating AS (Alternaria solani): 0 (less than 50% disease control)
- disease control rating RSI (Rhizoctonia solani): 0 (less than 50% disease control)
- disease control rating EGP [2]: 2 (greater than 80% disease control)
- disease control rating PHI [3]: 0 (less than 50% disease control)
- disease control rating VII (Venturia inaequalis): 0 (less than 50% disease control)
- disease control rating BCB (Botrytis cinerea): 2 (greater than 80% disease control)
- disease control rating PVA (Plasmopara viticola): 0 (less than 50% disease control)
